# In patent publication US20130217778A1, “METHODS AND COMPOSITIONS FOR THE IMPROVEMENT OF SKELETAL MUSCLE FUNCTION IN A MAMMAL” (priority 2010, published 2013):
# Legend:
# Assay type in all cases: cell-based
# [1] = test system: normal mouse skeletal muscle tissue (mBAM); experiment: MFAS tetanic force of mBAMs from normal mouse leg muscle cells
# Experimental: (§1) High glucose tissue culture medium (4.5 g/l) was used in all experiments to maintain glucose levels well above normal human blood plasma levels (0.9 to 1.8 g/l) and, thereby, minimize drug action through increased glucose availability to the muscle cells. Varying concentrations of metformin (Sigma-Aldrich Cat. No. D15,095-9; 1,1-dimethylbiguanide hydrochloride) were added to tissue culture medium of mBAMs when the mBAMs had reached a plateau of maximal tetanic force, which was measured in a MyoForce Analysis System (MFAS™) 24 hours later. Every 24 hours, fresh metformin was added to fresh tissue culture medium, and tetanic forces were measured every 24 hours for 3-4 days. Fatigue was assayed after 3-4 days of metformin treatment by 15-20 repetitive tetanic stimulations of each mBAM at 14V, 60 Hz for 2 seconds every 4-5 seconds. Force is determined after each stimulation and compared to the initial force determined after the first stimulation relative to untreated controls. (Mean±S.E.M. of 3-8 samples per group was calculated and statistical analyses performed by t-tests.)
# High glucose tissue culture medium (4.5 g/l) was used in all experiments to maintain glucose levels well above normal human blood plasma levels (0.9 to 1.8 g/l) and, thereby, minimize drug action through increased glucose availability to the muscle cells.
# [2] = test system: human Duchenne muscular dystrophy (DMD) muscle tissue (mBAM); experiment: MFAS fatigue assay of human DMD mBAMs; details: low concentrations, FIGS. 10A-10C
# Experimental: as §1
# The immortalized muscle cells were tissue engineered into contractile muscle tissue (mBAMs), and muscle force and fatigue were measured as described above. High glucose tissue culture medium (4.5 g/l) was used to maintain glucose levels well above normal human blood plasma levels (0.9 to 1.8 g/l) and, thereby, minimize drug action through increased glucose availability to the muscle cells. […] Every 24 hours, fresh biguanide was added in fresh medium and tetanic force measured for a total of 3-4 days.
# [3] = test system: mdx murine skeletal muscle tissue (mBAM); experiment: MFAS fatigue assay (repetitive tetanic stimulation) of mdx mouse mBAMs; details: repetitive tetanic stimulation after 3-4 days of treatment, FIG. 4B
# Description: (§2) Conditionally immortalized skeletal muscle cells from the mdx mouse muscle (Morgan et al., Dev Biol. 162: 486-498, 1994) were tissue engineered into contractile muscle tissue (mBAMs), as described herein. (See also, e.g., Vandenburgh et al., Muscle and Nerve 37: 438-447, 2008; Vandenburgh et al., Treat NMD Meeting, 2009). Briefly, several hundred thousand proliferating myoblasts were mixed with a solution of extracellular matrix (collagen or fibrin) and pipetted into custom wells containing two flexible “posts” (FIG. 1A). The cell/matrix mixture gelled around the tops of the posts, forming a defined tubular structure (FIG. 1B). […] Maximal tetanic force (i.e., muscle strength) was measured by imaging the deflection of the attachment posts and converting the distance of deflection into force, as illustrated in FIGS. 2A-2B.
# (§3) High glucose tissue culture medium (4.5 g/l) was used in all experiments to maintain glucose levels well above normal human blood plasma levels (0.9 to 1.8 g/l) and, thereby, minimize drug action through increased glucose availability to the muscle cells. Varying concentrations of metformin (Sigma-Aldrich Cat. No. D15,095-9; 1,1-dimethylbiguanide hydrochloride) were added to tissue culture medium of mBAMs when the mBAMs had reached a plateau of maximal tetanic force, which was measured in a MyoForce Analysis System (MFAS™) 24 hours later. […]
# [4] = test system: mdx murine muscle tissue (mBAM); experiment: MFAS maximal tetanic force of mBAMs from mdx mouse muscle cells; details: low concentrations experiment, four days of exposure, FIG. 4A
# Description: as §2, §3
# [5] = test system: normal human muscle tissue (mBAM); experiment: MFAS tetanic force of mBAMs from normal human vastus lateralis muscle cells; details: 3-4 days of exposure, FIGS. 7A-7D
# Experimental: as §1
# [6] = test system: human Duchenne muscular dystrophy (DMD) muscle tissue (mBAM); experiment: MFAS tetanic force of mBAMs from immortalized Duchenne muscular dystrophy muscle cells; details: 3-4 days of exposure, FIGS. 9A, 9B, 9D
# Experimental: as §1
# The immortalized muscle cells were tissue engineered into contractile muscle tissue (mBAMs), and muscle force and fatigue were measured as described above. […] Every 24 hours, fresh biguanide was added in fresh medium and tetanic force measured for a total of 3-4 days.
SMILES,"concentration that increased tetanic force generated by the muscle tissue ([1]; 3-4 days of exposure, FIGS. 5A-5B) [µg/mL]",effect on the rate of muscle fatigue with repetitive stimulations [2],concentration that significantly decreased the rate of muscle fatigue [3] [µg/mL],concentration that significantly increased maximal tetanic force generated by mBAM muscle tissue [4] [µg/mL],"concentration that significantly increased tetanic force ([1]; after 3 days of treatment, FIG. 5C) [µg/mL]",concentrations that increased tetanic force generated by the muscle tissue [5],concentrations that increased tetanic force generated by the muscle tissue [6] [µg/mL]
"CN(C)C(=N)NC(=N)N [metformin, 1,1-dimethylimido-dicarbonimidic diamide]",0.0006,decreased the rate of muscle fatigue,0.000001,0.0006,–,–,–
"CC(C)NC(=N)NC(=N)Nc1ccc(Cl)cc1 [proguanil, 1-(4-chlorophenyl)-5-isopropyl-biguanide]",–,–,–,–,0.001,less than 0.0001 μg/ml,≤ 0.00006
"CCCCNC(=N)NC(=N)N [buformin, Buformin]",–,decreased the rate of muscle fatigue,–,–,–,less than 0.1 μg/ml,–
"N=C(N)NC(=N)NCCc1ccccc1 [phenformin, Phenformin]",–,decreased the rate of muscle fatigue,–,–,–,–,–
